Legend:
[1] = Pharmacokinetics after intravenous bolus injection; format: in vivo, rat; conditions: 30 mg/kg single i.v. bolus; rat
Method: Adult male Wistar rats weighing between 180 and 240 g were used to determine the pharmacokinetics of GPE and […]. To facilitate intravenous bolus injections and blood sampling, all rats were surgically implanted with an indwelling jugular venous cannula under halothane anesthesia three days before the experiment. Groups of six rats were given a single intravenous bolus injection of either 30 mg/kg GPE or 10 mg/kg […] dissolved in 0.1M succinate buffer (pH 6.5). […] The samples were centrifuged at 3000 g for 15 min at 4° C. and the plasma removed and stored at -80° C. until extraction and assay by either radioimmunoassay (“RIA”) or reverse phase HPLC. The RIA and HPLC methods used were conventional. […] The k and half-life (t1/2) were calculated from the slope of the linear regression line in the elimination phase of the semi-logarithmic plot of plasma concentration versus time as: Log. C=-kt/2.3+log C0. Results were expressed as mean±standard error.

[2] = system: cortical neurons injured with okadaic acid; experiment: Okadaic acid injury of cortical cultures, MTT survival; format: cell-based, rat; conditions: 10 μM, 24 hours incubation, MTT-assay
Method: One cortical hemisphere from a postnatal day 1 rat was used and collected into 4 ml of DMEM. Trituration was performed using a 5 ml glass pipette and an 18-gauge needle. The cell suspension was sieved through a 100 μm cell strainer and washed in 50 ml DMEM (centrifugation for 5 min at 250 g). The sediment was resuspended in 20 ml DMEM+10% fetal calf serum. The suspension was added into two […] flasks (10 ml per flask) and cultivated at 37° C. in the presence of 10% CO2 followed by a change of the medium twice a week. When cells reached confluence, they were washed three times with PBS, adjusted to Neurobasal/B27 and incubated for another 3 days. This supernatant was frozen for transient storage at −80° C. […]
The cells were triturated once with a glass Pasteur pipette in 1 ml of Neurobasal/B27 medium and subsequently twice by using a 1 ml insulin syringe with a 22 gauge needle. […] Cells were counted and adjusted to 50,000 cells per 60 μl. […]
To cause toxic injury to neurons, we exposed neurons to 1:100 parts of okadaic acid at concentrations of 30 nM or 100 nM and 0.5 mM 3-nitropropionic acid (for cerebellar microexplants only). […] The survival rate was determined by a colorimetric end-point MTT-assay at 595 nm in a multi-well plate reader. For the cerebellar microexplants four windows (field of 0.65 mm^2) with highest cell density were chosen and cells displaying neurite outgrowth were counted.

[3] = Degradation of GPE in vivo and in vitro
MeCP2 knock-out mice = conditions: U.S. Publication No. 2009/0099077; cited from earlier work
wild type young mice = conditions: Tropea et al., 2006; cited from earlier work

In the case of `NCC(=O)N1CCC[C@H]1C(=O)N[C@@H](CCC(=O)O)C(=O)O` [GPE, glycyl-L-prolyl-L-glutamic acid], the first order rate constant [1] is reported as 0.15 ± 0.014 min⁻¹, the neuroprotection [2] is reported as 64% and the degradation [3] is reported as “rapidly degraded”. For the same molecule, the “effect on life span” value (MeCP2 knock-out mice) was “prolong life”, the “effect on neuronal function” value (MeCP2 knock-out mice) was “increase neuronal function” and the OD plasticity (wild type young mice) was “reduce”.
